Patent US20100056524A1, “Compound” (priority 2008, published 2010)
Structures can show the parent of a compound that is named as a salt. Where two headings read alike, the source gives them in different places.

Legend:
Format in all cases: biochemical
PIM2 = biological target: T1, PIM2 (Homo sapiens, UniProt Q9P1W9); assay: PIM2 protein kinase assay; conditions: for remaining activity at 10 µM: 10 μM compound; for residual kinase activity PIM2: 1 μm compound; for remaining activity at 1 µM: 1 μM compound
T1 construct: All protein kinases were of human origin and encoded full length proteins, unless indicated otherwise; made in house
Excerpt: (§1) All protein kinases were of human origin and encoded full length proteins, unless indicated otherwise. They were either expressed as glutathione S-transferase (GST) fusion proteins in Escherichia Coli or as hexahistidine (His6)-tagged proteins in insect Sf21 cells. GST fusion proteins were purified by affinity chromatography on glutathione-Sepharose, and His6-tagged proteins on nickel/nitriloacetate-agarose. The procedures for expressing some of the protein kinases used herein have been detailed previously.^8,9 The following sections outline the DNA vectors synthesised and the procedures used to express and purifying protein kinases that have not been reported previously.
(§2) All assays (25.5 μl) were carried out at room temperature (21° C.) and were linear with respect to time and enzyme concentration under the conditions used. Assays were performed for 30 min using Multidrop Micro reagent dispensers (Thermo Electron Corporation, Waltham, Mass. 02454, USA) in a 96-well format. The concentration of magnesium acetate in the assays was 10 mM and the [γ-33P] ATP (800 cpm/pmol) was used at 5, 20 or 50 μM as indicated, in order to be at or below the Km for ATP for each enzyme. Protein kinases assayed at 5 μM ATP were: —ERK1, ERK8, PKBα, MARK3, Aurora C. Protein kinases assayed at 20 μM ATP were: —JNK1, PDK1, CHK1, CHK2, CDK2 and Aurora B. Protein kinases assayed at 50 μM ATP were: —MNK2, IKKepsilon and TBK1.
(§3) The assays were initiated with MgATP, stopped by addition of 5 μl of 0.5 M orthophosphoric acid and spotted on to P81 filterplates using a unifilter harvester (PerkinElmer, Boston, Mass. 02118, USA). The IC50 values of inhibitors were determined after carrying out assays at 10 different concentrations of each compound.
(§4) Unless stated otherwise, enzymes were diluted in 50 mM Tris/HCl pH 7.5, 0.1 mM EGTA, 1 mg/ml BSA, 0.1% (v/v) 2-mercaptoethanol and assayed in 50 mM Tris/HCl pH 7.5, 0.1 mM EGTA, 0.1% (v/v) 2-mercaptoethanol.

YES1 = biological target: T2, YES1 (Homo sapiens, UniProt P07947); assay: YES1 protein kinase assay; conditions: for remaining activity at 10 µM: 10 μM compound; for residual kinase activity YES1: 1 μm compound; for remaining activity at 1 µM: 1 μM compound
T2 construct: All protein kinases were of human origin and encoded full length proteins, unless indicated otherwise; made in house
Excerpt: as §1, §2, §3, §4

PIM1 = biological target: T3, PIM1 (Homo sapiens, UniProt P11309); assay: PIM1 protein kinase assay; conditions: for remaining activity at 10 µM: 10 μM compound; for residual kinase activity PIM1: 1 μm compound; for remaining activity at 1 µM: 1 μM compound
T3 construct: All protein kinases were of human origin and encoded full length proteins, unless indicated otherwise; made in house
Excerpt: as §1, §2, §3, §4

p38a MAPK = biological target: T4, p38a MAPK (Homo sapiens, UniProt Q16539); assay: p38a MAPK protein kinase assay; conditions: for remaining activity at 10 µM: 10 μM compound; for residual kinase activity p38a MAPK: 1 μm compound; for remaining activity at 1 µM: 1 μM compound
T4 construct: All protein kinases were of human origin and encoded full length proteins, unless indicated otherwise; made in house
Excerpt: as §1, §2, §3, §4

CAMK1 = biological target: T5, CAMK1 (Homo sapiens, UniProt Q14012); assay: CAMK1 protein kinase assay; conditions: for remaining activity at 10 µM: 10 μM compound; for residual kinase activity CAMK1: 1 μm compound; for remaining activity at 1 µM: 1 μM compound
T5 construct: All protein kinases were of human origin and encoded full length proteins, unless indicated otherwise; made in house
Excerpt: as §1, §2, §3, §4

IKKb = biological target: T6, IKKb (Homo sapiens, UniProt O14920); assay: IKKb protein kinase assay; conditions: for remaining activity at 10 µM: 10 μM compound; for residual kinase activity IKKb: 1 μm compound; for remaining activity at 1 µM: 1 μM compound
T6 construct: All protein kinases were of human origin and encoded full length proteins, unless indicated otherwise; made in house
T6 sequence (O14920 1-756): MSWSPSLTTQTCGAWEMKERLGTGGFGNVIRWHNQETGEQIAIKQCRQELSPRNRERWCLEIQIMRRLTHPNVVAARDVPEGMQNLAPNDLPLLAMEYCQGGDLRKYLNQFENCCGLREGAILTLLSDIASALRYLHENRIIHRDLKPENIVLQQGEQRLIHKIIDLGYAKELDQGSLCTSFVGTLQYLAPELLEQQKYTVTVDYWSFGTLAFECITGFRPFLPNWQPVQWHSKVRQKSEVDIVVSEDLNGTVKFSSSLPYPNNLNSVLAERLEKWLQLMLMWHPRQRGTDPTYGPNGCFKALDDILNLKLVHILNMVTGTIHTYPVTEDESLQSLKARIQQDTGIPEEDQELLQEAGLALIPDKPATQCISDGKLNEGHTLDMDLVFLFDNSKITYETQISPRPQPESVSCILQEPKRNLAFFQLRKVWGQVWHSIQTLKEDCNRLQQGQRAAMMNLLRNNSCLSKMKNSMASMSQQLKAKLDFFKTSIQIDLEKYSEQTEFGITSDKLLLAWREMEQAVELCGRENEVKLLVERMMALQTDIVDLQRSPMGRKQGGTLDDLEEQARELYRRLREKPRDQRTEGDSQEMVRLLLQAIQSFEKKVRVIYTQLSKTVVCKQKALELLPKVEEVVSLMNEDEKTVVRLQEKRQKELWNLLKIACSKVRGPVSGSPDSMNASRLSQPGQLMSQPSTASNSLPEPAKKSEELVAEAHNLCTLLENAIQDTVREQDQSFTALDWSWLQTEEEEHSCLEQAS
Excerpt: as §1, §2, §3, §4

PKC zeta = biological target: T7, PKC zeta (Homo sapiens, UniProt Q05513); assay: PKC zeta protein kinase assay; conditions: for remaining activity at 10 µM: 10 μM compound; for residual kinase activity PKC zeta: 1 μm compound; for remaining activity at 1 µM: 1 μM compound
T7 construct: All protein kinases were of human origin and encoded full length proteins, unless indicated otherwise; made in house
T7 sequence (Q05513 1-592): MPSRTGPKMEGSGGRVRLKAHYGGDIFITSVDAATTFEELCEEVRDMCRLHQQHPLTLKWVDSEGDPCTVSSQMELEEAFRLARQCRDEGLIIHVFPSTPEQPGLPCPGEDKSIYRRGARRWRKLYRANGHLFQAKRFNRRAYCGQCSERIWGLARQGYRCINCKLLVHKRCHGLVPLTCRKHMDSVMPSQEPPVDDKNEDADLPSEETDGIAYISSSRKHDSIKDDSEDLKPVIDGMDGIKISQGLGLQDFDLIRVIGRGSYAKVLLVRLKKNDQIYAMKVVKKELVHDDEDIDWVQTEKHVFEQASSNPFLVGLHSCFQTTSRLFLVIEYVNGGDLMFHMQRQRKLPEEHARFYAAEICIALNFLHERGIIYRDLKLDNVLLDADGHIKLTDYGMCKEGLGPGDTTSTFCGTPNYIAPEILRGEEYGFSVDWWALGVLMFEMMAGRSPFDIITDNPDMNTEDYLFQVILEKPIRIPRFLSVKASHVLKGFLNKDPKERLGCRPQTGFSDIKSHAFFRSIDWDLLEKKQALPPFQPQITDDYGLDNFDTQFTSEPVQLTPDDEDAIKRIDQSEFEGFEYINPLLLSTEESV
Excerpt: as §1, §2, §3, §4

MST4 = biological target: T8, MST4 (Homo sapiens, UniProt Q9P289); assay: MST4 protein kinase assay; conditions: for remaining activity at 10 µM: 10 μM compound; for residual kinase activity MST4: 1 μm compound; for remaining activity at 1 µM: 1 μM compound
T8 construct: All protein kinases were of human origin and encoded full length proteins, unless indicated otherwise; made in house
Excerpt: as §1, §2, §3, §4

[1] = read-out: residual kinase activity PIM2
[2] = read-out: residual kinase activity YES1
[3] = read-out: residual kinase activity PIM1
[4] = read-out: residual kinase activity p38a MAPK
[5] = read-out: residual kinase activity CAMK1
[6] = read-out: residual kinase activity IKKb
[7] = read-out: residual kinase activity PKC zeta
[8] = read-out: residual kinase activity MST4
[9] = PIM2, read-out: residual kinase activity
[10] = YES1, read-out: residual kinase activity
[11] = PIM1, read-out: residual kinase activity
[12] = p38a MAPK, read-out: residual kinase activity
[13] = CAMK1, read-out: residual kinase activity
[14] = IKKb, read-out: residual kinase activity
[15] = PKC zeta, read-out: residual kinase activity
[16] = MST4, read-out: residual kinase activity

T8 sequence (Q9P289 whole entry): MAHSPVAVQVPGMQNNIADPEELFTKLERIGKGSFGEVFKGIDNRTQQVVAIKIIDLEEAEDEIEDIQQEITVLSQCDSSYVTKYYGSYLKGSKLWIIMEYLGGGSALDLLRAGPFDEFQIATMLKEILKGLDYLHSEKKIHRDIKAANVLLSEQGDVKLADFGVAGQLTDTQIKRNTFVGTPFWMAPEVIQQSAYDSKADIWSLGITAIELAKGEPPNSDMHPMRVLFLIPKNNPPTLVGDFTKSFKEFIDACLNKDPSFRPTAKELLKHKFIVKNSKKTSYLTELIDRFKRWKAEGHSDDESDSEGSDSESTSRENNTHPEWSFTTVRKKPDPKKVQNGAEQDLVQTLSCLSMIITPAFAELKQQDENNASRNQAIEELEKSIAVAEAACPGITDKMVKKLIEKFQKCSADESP
T1 sequence (Q9P1W9 whole entry): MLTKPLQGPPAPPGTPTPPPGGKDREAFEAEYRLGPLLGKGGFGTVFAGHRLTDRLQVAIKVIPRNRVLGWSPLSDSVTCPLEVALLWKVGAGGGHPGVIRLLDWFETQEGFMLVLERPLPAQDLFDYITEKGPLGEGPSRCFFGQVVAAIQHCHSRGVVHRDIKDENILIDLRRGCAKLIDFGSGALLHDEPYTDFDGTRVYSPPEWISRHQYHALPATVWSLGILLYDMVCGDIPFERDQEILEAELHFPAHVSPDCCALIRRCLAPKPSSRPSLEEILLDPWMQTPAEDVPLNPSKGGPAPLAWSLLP
T3 sequence (P11309 whole entry): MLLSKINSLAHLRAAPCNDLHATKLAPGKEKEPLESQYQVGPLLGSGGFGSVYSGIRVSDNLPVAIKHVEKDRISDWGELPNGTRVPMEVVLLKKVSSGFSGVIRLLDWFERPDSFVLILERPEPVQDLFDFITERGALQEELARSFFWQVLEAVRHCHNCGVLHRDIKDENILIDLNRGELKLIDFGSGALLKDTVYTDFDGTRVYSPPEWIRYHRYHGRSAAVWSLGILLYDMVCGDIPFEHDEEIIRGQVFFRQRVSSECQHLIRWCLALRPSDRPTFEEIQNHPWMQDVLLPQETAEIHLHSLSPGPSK
T5 sequence (Q14012 whole entry): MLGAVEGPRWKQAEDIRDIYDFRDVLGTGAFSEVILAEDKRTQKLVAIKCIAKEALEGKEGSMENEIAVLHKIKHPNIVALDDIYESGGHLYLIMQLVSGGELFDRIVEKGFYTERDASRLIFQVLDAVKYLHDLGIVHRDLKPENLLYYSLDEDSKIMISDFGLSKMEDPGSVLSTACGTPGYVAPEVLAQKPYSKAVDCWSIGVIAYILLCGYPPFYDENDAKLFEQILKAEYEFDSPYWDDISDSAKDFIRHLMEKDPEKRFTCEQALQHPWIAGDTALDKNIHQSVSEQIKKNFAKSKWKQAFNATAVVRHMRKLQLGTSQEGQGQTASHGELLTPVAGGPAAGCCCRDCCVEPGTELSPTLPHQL
T4 sequence (Q16539 whole entry): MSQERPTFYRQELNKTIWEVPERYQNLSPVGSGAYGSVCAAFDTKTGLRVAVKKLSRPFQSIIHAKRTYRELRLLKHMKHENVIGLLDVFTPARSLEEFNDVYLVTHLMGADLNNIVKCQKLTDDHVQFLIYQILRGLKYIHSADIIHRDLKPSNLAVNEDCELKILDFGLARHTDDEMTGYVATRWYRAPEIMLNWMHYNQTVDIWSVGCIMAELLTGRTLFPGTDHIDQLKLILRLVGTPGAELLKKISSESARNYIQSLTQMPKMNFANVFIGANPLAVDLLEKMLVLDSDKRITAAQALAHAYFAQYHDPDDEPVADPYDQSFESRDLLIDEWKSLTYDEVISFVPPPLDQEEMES
T2 sequence (P07947 whole entry): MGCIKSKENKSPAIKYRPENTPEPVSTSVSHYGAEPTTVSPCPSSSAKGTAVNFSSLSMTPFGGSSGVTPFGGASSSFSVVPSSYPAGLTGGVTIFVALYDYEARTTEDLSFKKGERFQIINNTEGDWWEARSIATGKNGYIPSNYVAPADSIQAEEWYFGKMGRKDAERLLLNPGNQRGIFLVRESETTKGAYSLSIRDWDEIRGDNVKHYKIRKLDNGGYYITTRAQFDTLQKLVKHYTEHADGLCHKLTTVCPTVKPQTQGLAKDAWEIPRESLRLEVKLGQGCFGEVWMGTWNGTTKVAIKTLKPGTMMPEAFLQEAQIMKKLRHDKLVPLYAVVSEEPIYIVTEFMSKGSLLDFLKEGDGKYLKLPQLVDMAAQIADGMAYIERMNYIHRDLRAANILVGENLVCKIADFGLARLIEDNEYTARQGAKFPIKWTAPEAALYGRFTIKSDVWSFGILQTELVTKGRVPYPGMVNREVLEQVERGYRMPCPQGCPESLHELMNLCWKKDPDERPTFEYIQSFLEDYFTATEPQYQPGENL

Compound | remaining activity at 10 µM (PIM2; [1]) [%] | residual kinase activity PIM2 (PIM2) [%] | remaining activity at 10 µM (YES1; [2]) [%] | residual kinase activity YES1 (YES1) [%] | remaining activity at 1 µM (PIM2; [9]) [%] | remaining activity at 10 µM (PIM2; [9]) [%] | remaining activity at 1 µM (YES1; [10]) [%] | remaining activity at 10 µM (YES1; [10]) [%] | remaining activity at 1 µM (PIM1; [11]) [%] | remaining activity at 10 µM (PIM1; [11]) [%] | remaining activity at 1 µM (p38a MAPK; [12]) [%] | remaining activity at 10 µM (p38a MAPK; [12]) [%] | remaining activity at 1 µM (CAMK1; [13]) [%] | remaining activity at 10 µM (CAMK1; [13]) [%] | remaining activity at 1 µM (IKKb; [14]) [%] | remaining activity at 10 µM (IKKb; [14]) [%] | remaining activity at 1 µM (PKC zeta; [15]) [%] | remaining activity at 10 µM (PKC zeta; [15]) [%] | remaining activity at 1 µM (MST4; [16]) [%] | remaining activity at 10 µM (MST4; [16]) [%] | also measured
O=C(NCCCNc1nc(Nc2cccc(F)c2)ncc1Br)C1CCC1 [Compound A, cyclobutanecarboxylic acid {3-[5-bromo-2-(3-fluoro-phenylamino)-pyrimidin-4-ylamino]-propyl}-amide, reference compound] | 75 | 90 | 8 | 36 |  |  |  |  |  |  |  |  |  |  |  |  |  |  |  |  | remaining activity at 10 µM (PIM1; [3]): 50%; residual kinase activity PIM1 (PIM1): 52%; remaining activity at 10 µM (p38a MAPK; [4]): 78%; residual kinase activity p38a MAPK (p38a MAPK): 99%; remaining activity at 10 µM (CAMK1; [5]): 25%; residual kinase activity CAMK1 (CAMK1): 54%; remaining activity at 10 µM (IKKb; [6]): 66%; residual kinase activity IKKb (IKKb): 93%; remaining activity at 10 µM (PKC zeta; [7]): 42%; residual kinase activity PKC zeta (PKC zeta): 90%; remaining activity at 10 µM (MST4; [8]): 47%; residual kinase activity MST4 (MST4): 90%
O=C(NCCCNc1nc(Nc2cccc(F)c2)ncc1C1CC1)C1CCC1 [Example 23, Cyclobutanecarboxylic acid {3-[5-cyclopropyl-2-(3-fluoro-phenylamino)-pyrimidin-4-ylamino]-propyl}-amide] | 67 | 74 | 22 | 77 | 74 | 67 | 77 | 22 | 78 | 46 | 72 | 86 | 77 | 66 | 75 | 80 | 99 | 89 | 94 | 56 | remaining activity at 10 µM (PIM1; [3]): 46%; residual kinase activity PIM1 (PIM1): 78%; remaining activity at 10 µM (p38a MAPK; [4]): 86%; residual kinase activity p38a MAPK (p38a MAPK): 72%; remaining activity at 10 µM (CAMK1; [5]): 66%; residual kinase activity CAMK1 (CAMK1): 77%; remaining activity at 10 µM (IKKb; [6]): 80%; residual kinase activity IKKb (IKKb): 75%; remaining activity at 10 µM (PKC zeta; [7]): 89%; residual kinase activity PKC zeta (PKC zeta): 99%; remaining activity at 10 µM (MST4; [8]): 56%; residual kinase activity MST4 (MST4): 94%
O=C(NCCCNc1nc(Nc2cccc(N3CCCC3=O)c2)ncc1C1CC1)c1cccs1 [Example 47, Thiophene-2-carboxylic acid (3-{5-cyclopropyl-2-[3-(2-oxo-pyrrolidin-1-yl)-phenylamino]-pyrimidin-4-ylamino}-propyl)-amide. Hydrochloride salt] |  |  |  |  | 101 | 93 | 94 | 74 | 82 | 57 | 105 | 100 | 91 | 73 | 91 | 86 | 80 | 78 | 124 | 111 | 
O=C(NCCCNc1nc(Nc2cccnc2)ncc1C1CC1)c1cccs1 [Example 50, Thiophene-2-carboxylic acid {3-[5-cyclopropyl-2-(pyridin-3-ylamino)-pyrimidin-4-ylamino]-propyl}-amide] |  |  |  |  | 100 | 89 | 82 | 29 | 63 | 92 | 106 | 90 | 94 | 71 | 90 | 88 | 84 | 73 | 164 | 120 | 
